Experiment [1] deals with U-251. Description: Antiproliferative activity against human U-251MG cells. It counts as functional, cell-based.
In experiment [2] the test system is U-87 MG. Description: Antiproliferative activity against human U-87-MG cells. In kind it is functional, cell-based, U-87MG ATCC.
Experiment [3] concerns SH-SY5Y. The experiment is described as follows: Cytotoxicity against human SH-SY5Y cells measured for 48 hrs by SRB assay. In kind it is functional, cell-based. (The SRB assay estimates cell density from bound dye.)
Experiment [4] has as its system T98G. Description: Cytotoxicity against human T98G cells assessed as inhibition of cell growth measured for 72 hrs by MTT assay. It counts as functional, cell-based. A general note: Tetrazolium assays rely on reduction of a dye to a coloured formazan, in cell work by metabolically active cells.
In experiment [5] the test system is T98G. Description: Antiproliferative activity against human T98G cells assessed as inhibition of cell growth measured for 72 hrs by MTT assay. In kind it is functional, cell-based.
Experiment [6] deals with U-251. The experiment is described as follows: Antiproliferative activity against human U-251MG cells assessed as inhibition of cell growth measured for 72 hrs by MTT assay. In kind it is functional, cell-based. Conditions: U-251, 72 h.
Experiment [7] relates to U-251. The experiment is described as follows: Cytotoxicity against human U-251MG cells assessed as inhibition of cell growth measured for 72 hrs by MTT assay. It counts as functional, cell-based. The note with it: U-251, 72 h.
The subject of experiment [8] is U-251. The experiment is described as follows: Growth inhibition of human U-251MG cells measured for 48 hrs by SRB assay. It counts as functional.
Experiment [9] concerns U-87 MG. The experiment is described as follows: Antiproliferative activity against human U-87 MG cells measured for 48 hrs by MTT assay. In kind it is functional, cell-based, U-87MG ATCC.
In experiment [10] the test system is U-87 MG. The experiment is described as follows: Antiproliferative activity against human U-87 MG cells by MTT assay. It counts as functional, cell-based, U-87MG ATCC.
Experiment [11] relates to C6. The experiment is described as follows: Antiproliferative activity against rat C6 cells by MTT assay. It counts as functional, cell-based.
Experiment [12] relates to U-251. Description: Antiproliferative activity against human U-251MG cells assessed as reduction in cell growth measured for 48 hrs by MTT assay. It counts as functional, cell-based. The note with it: U-251, 48 h.
Experiment [13] in a line: Cytotoxicity against human U373 MG cells by MTT assay. In kind it is functional, cell-based, U-373MG ATCC.
The test system of experiment [14] is Hs 683. Description: Cytotoxicity against human Hs 683 cells by MTT assay. It counts as functional, cell-based.
A short description of experiment [15]: Cytotoxicity against rat ACNU-resistant C6/ACNU cells assessed as reduction in cell growth incubated for 24 hrs by MTT assay. It counts as functional, cell-based.
The nature of experiment [16]: Cytotoxicity against rat ACNU-resistant C6 cell assessed as reduction in cell growth in presence of reserpine at 10 uM incubated for 24 hrs by MTT assay. In kind it is functional, cell-based.
The nature of experiment [17]: Cytotoxicity against rat ACNU-resistant C6/ACNU cells assessed as reduction in cell growth in presence of reserpine at 20 uM incubated for 24 hrs by MTT assay. It counts as functional, cell-based.
Experiment [18] can be described thus: Antitumor activity against rat C6/ACNUcells implanted in Wistar rat assessed as increase in life span at 1 mg/kg relative to control. It counts as functional, C6/ACNU.
Experiment [19] can be described thus: Cytotoxicity against rat ACNU-resistant C6/ACNU cells assessed as reduction in cell growth in presence of reserpine at 10 uM incubated for 24 hrs by MTT assay. It counts as functional, cell-based.
Experiment [20] can be described thus: Cytotoxicity against rat ACNU-resistant C6 cell assessed as reduction in cell growth in presence of reserpine at 20 uM incubated for 24 hrs by MTT assay. It counts as functional, cell-based.
Experiment [21] can be described thus: Cytotoxicity against rat ACNU-resistant C6 cells assessed as reduction in cell growth incubated for 24 hrs by MTT assay. In kind it is functional, cell-based.
Experiment [22] is described as follows: Induction of apoptosis in human U373 MG cells at 1 uM relative to control. It counts as functional, U-373MG ATCC.
The nature of experiment [23]: Cytotoxicity against human U-343MG cells. It counts as functional, cell-based.

As for `C[C@@H](O)c1cc2ccncc2c(=O)[nH]1`, the IC50 in [1] was determined as 13.4 µM; in experiment [2] it was 7.9 µM.

The molecule `OCc1ccc(-c2nccc3c2[nH]c2ccccc23)o1` [PERLOLYRIN] registered an IC50 in [3] of 23.9 µM.

Take `COc1cc(/C=C/C(=O)NCCc2c[nH]c3ccc(O)cc23)ccc1O` [N-FERULOYL SEROTONIN]: the IC50 was 193 µM in experiment [4], 730 µM in experiment [5], 590 µM in experiment [6] and 238 µM in [7].

As for `C/C=C1/CN2C3C[C@H]1[C@H](CO)[C@@H]2Cc1c3n(C)c2ccccc12`, growth in experiment [8] was halved (GI50) at 9.5 µM.

Regarding `CN1c2ccccc2C(=O)N2CCc3c([nH]c4ccccc34)[C@H]21`, the figures for the IC50 in experiment [9], in experiment [10] and in experiment [11] were 5.21 µM, 3.7 µM and 4.3 µM, respectively.

`CC(C)(O)[C@H]1O[C@H]2CC[C@@]3(C)[C@@](O)(CC[C@H]4Cc5c([nH]c6ccccc56)[C@@]43C)C2=CC1=O` [PAXILLINE]: the IC50 in experiment [12] is around 0.013 µM.

For `CC(C)[C@@]12NC(=O)[C@@H](Cc3c1[nH]c1ccccc31)n1c2nc2ccccc2c1=O`, the IC50 stood at 44 µM in experiment [13] and 50 µM in experiment [14].

For the molecule `Cc1ncc(CNC(=O)N(CCCl)N=O)c(N)n1.Cl` [NIMUSTINE HYDROCHLORIDE], the IC50 in experiment [15] was 120 µg/mL; in experiment [16] it was 4.1 µg/mL; in experiment [17], 2.5 µg/mL; in experiment [19] it was 8 µg/mL; in experiment [20], 3.1 µg/mL; in experiment [21], 8.3 µg/mL. For the same molecule, the Activity in experiment [18] was 143%.

`C=C[C@H]1CN2CCc3c([nH]c4c([C@@H]5CCCN5C)c(O)ccc34)[C@@H]2C[C@@H]1C[C@H]1c2[nH]c3ccccc3c2CCN1C` showed an Activity in [22] of 80%. The molecule also had an IC50 in [23] of around 1 µM.

By IC50 is commonly meant the concentration at which inhibition is half-maximal. For orientation: GI50 means the concentration giving 50% growth inhibition. Read a low GI50 as greater sensitivity of the cells.
